The values that follow come from US12583825B2, “Benzo[h]quinazolin-4-amine and thieno[3,2-h]quinazolin-4-amine derivatives for the treatment of cancer” (Redona Therapeutics, Inc., priority 2020, dated 2026).

Data set [1] addresses T1, recombinant human CLK3 (Homo sapiens, UniProt P49761).
T1 construct: purchased Thermo Fisher Scientific PV3826
Nature of the data set: CLK3 kinase assay (LANCE Ultra). The class given is biochemical. The conditions noted are these: 0.5 nM CLK3, 300 μM ATP, 3 hours at 30° C. In short, it runs like this: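 TR-FRET (LANCE Ultra) read-out of phospho-CREBtide after a 3 h, 30 °C reaction containing 300 μM ATP, 50 nM ULight-CREBtide and 0.5 nM recombinant human CLK3, compounds in 1% DMSO.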

The test system of data set [2] is CAL-51 triple-negative breast cancer xenograft. As to the kind of experiment: CAL-51 triple-negative breast cancer mouse xenograft model. The conditions noted are these: for tumor volumes smaller compared to the vehicle-treated group: day 21, female NCG mice; for tumor volumes compared with vehicle-treated animals (one-way ANOVA, P<0.05): day 21.
Experimental: A pair match was performed when tumors reached an average volume of 100-150 mm^3 to distribute animals into treatment groups (n=8/group), and treatment of the respective groups was initiated. Tumor volumes (expressed in mm^3) were measured twice weekly using a caliper on days 1, 3, 7, 10, 14, 17 and 21 of the treatment period.
To this end, the CAL-51 triple-negative breast cancer xenograft model was used, in which the tumor cells are injected subcutaneously into the flanks of immunodeficient NCG mice (lack functional/mature T, B, and NK cells, and have reduced macrophage and dendritic cell function). […] CAL-51 cells were harvested when they were growing exponentially.
Female NCG mice were used for the study at 8-12 weeks of age (Charles River Laboratories). Mice were inoculated subcutaneously in the flank region with 1×10^7 CAL-51 cells in 50% Matrigel™ in a final injection volume of 0.1 mL/mouse. Once tumors reached an average size of 100-150 mm^3, a pair match was carried out to distribute mice to the different treatment groups.
Tumor volumes (expressed in mm^3) were measured in two dimensions using a caliper on days 1, 3, 7, 10, 14, 17 and 21 of the treatment period. […] Results represent mean values±SEM. Tumor volumes at the conclusion of the study were analyzed by one-way ANOVA analysis to compare treatment groups to the vehicle group. The significance level was set to P<0.05. Calculations were conducted using GraphPad™ Prism version 9.
For data set [3], the system named is MDA-MB-231 cells. Nature of the data set: MDA-MB-231 proliferation assay. The class given is cell-based. The conditions noted are these: Homo sapiens, 72 hours, YO-PRO-1 readout. In short, it runs like this:
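Cells seeded at 750/well in DMEM with 10% FBS, treated 72 h at 37 °C, 0.5% DMSO final. Cell number read by YO-PRO-1 fluorescence (485/530 nm), normalised to DMSO (100%) and time-of-addition cells (0%); 4-parameter logistic fit with maximum fixed at 100%.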

Data set [4] relates to phospho-SRSF6 levels in MDA-MB-468 cells. Nature of the data set: Inhibition of phospho-SRSF6 levels in MDA-MB-468 cells (Western blot). The class given is cell-based. The note with it: Homo sapiens, 100 nM, 2 hours, normalized by GAPDH, read-out: % Intensity of p-SRSF6 signal at 100 nM compared to DMSO control. On the procedure:
FIG. 1: FIG. 1 provides a representative Western blot showing reduction of phosphorylated-SRSF6 (P-SRSF6) in MDA-MB 468 cells by compounds of the invention. GAPDH was probed for by Western blotting to control for equal protein loading and for normalization of samples. The numbers below the blots show percent intensity of P-SRSF6 signal at 100 nM compared to DMSO control.
Assessment of Inhibition of Phospho-SRSF6 Levels in MDA-MB-468 Cells
MDA-MB-468 cells (ATCC, HTB-132) were cultured in DMEM (BioConcept cat. no. 1-26F03) supplemented with 10% FBS (Sigma cat. no. F9665), 1% Na-pyruvate (Sigma cat. no. S8636), 1% Penicillin-Streptomycin (BioConcept cat. no. 4-01F00-H). When cells reached a density of 70% in 6-well plates (TPP cat. no. 92006), they were treated either with the test compound vehicle DMSO, or with experimental compounds at a final concentration of 100 nM for 2 hours. Thereafter, the culture medium was removed and cells were collected by scraping in Lysis Buffer (20 mM Tris HCl pH7.5, 150 mM NaCl, 1 mM EGTA, 1 mM EDTA, 1% Triton and 1% NP-40) containing protease and phosphatase inhibitors (Halt™ Protease&Phosphatase inhibitor cocktail 100× ThermoScientific cat. no. 1861281) and 1 mM PMSF (Fluka cat. no. 93482). Cleared lysates were stored in Eppendorf tubes at −80° C. until use, and protein concentration in lysates was determined using Pierce 660 nm Protein Assay Reagent (ThermoScientific cat. no. 22660). 20 μg proteins were diluted in 4× Laemmli buffer (Biorad cat. no. 161-0747) containing 10% beta-mercaptoethanol, separated by SDS-PAGE using 10% gels, and then transferred to PVDF membranes (Trans Blot Turbo Transfer Pack BioRad cat. no. 1704156) by Trans-Blot® Turbo™ System semidry blotting methodology (BioRad). Primary antibodies were incubated in TBS-0.1% Tween-20 buffer containing 3% BSA Bovine Albumin Fr.V (Millipore cat. no. 81-053-3) overnight at 4° C. The following primary antibodies were used: Mouse anti-phosphoepitope SR proteins clone 1H4 (Millipore cat. no. MABE50) diluted 1:5000, and rabbit anti-GAPDH clone 14C10 (Cell Signaling cat. no. 2118S) to control for equal protein loading, diluted 1:2000. HRP-conjugated secondary antibodies were incubated one hour at room temperature diluted 1:5000 in TBS-0.1% Tween-20 buffer containing 5% nonfat-dried bovine milk (Sigma cat. no. M7409). The following secondary antibodies were used: Goat anti-mouse-HRP (Jackson cat. no. 115-035-146) and goat anti-rabbit-HRP (Jackson cat. no. 111-035-144). Membranes were incubated with ECL Prime Western Blot Detection Reagent (Amersham cat. no. RPN2236) to detect specific signals using Fusion SOLO S device (Vilber Lourmat). Pixel intensity of the phopsho-SRSF6 (MW 55 kDa in reference to markers) and GAPDH (MW 37 kDa) signals in the Western blots were determined using Evolution-Capt image analysis software (v17.01, Vilber Lourmat). DMSO control was used to set the phospho-SRSF6 signal at baseline, phospho-SRSF6 signals for each sample were normalized by the respective GAPDH signals and percent intensity of P-SRSF6 signal at 100 nM compound compared to DMSO control was calculated (see FIG. 1).

“Also recorded” adds a separate entry of the source.

T1 sequence (P49761 whole entry): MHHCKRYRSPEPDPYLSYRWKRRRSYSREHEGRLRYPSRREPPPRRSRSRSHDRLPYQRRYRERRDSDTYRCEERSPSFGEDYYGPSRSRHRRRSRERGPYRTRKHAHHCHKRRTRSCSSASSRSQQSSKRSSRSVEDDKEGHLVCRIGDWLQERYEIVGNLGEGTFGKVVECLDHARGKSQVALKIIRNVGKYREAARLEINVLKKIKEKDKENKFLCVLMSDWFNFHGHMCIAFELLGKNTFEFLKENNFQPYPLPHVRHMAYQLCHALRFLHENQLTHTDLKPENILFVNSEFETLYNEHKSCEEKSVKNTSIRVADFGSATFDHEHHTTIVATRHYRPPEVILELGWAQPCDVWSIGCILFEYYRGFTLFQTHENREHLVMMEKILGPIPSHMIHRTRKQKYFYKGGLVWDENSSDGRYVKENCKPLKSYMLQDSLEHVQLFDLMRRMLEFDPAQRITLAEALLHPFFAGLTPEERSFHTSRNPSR

Take `COCCO/N=C1\c2cc(O[C@H]3CC[C@H](N)CC3)ccc2-c2ncnc(N)c2C1(C)C` [Example 29, (6Z)-8-(trans-4-aminocyclohexoxy)-6-(2-methoxyethoxyimino)-5,5-dimethyl-benzo[h]quinazolin-4-amine]: the IC50 in data set [1] was found to be 15.4 nM. Moreover, the “tumor volumes smaller compared to the vehicle-treated group” value in data set [2] (25 mg/kg daily orally) is given as 41.8%; in data set [2] (60 mg/kg three times a week orally), 42.7%; in data set [2] (85 mg/kg twice a week orally), 46.8%. In addition, the “tumor volumes compared with vehicle-treated animals (one-way ANOVA, P<0.05)” value in data set [2] (60 mg/kg thrice weekly) and in data set [2] (85 mg/kg twice weekly) was “significant; also recorded: significantly smaller” in each case. For the same compound, in data set [2] (oral 25, 60 or 85 mg/kg schedules, days 1-21, female NCG mice), the “tolerability, as evidenced by body weight assessments” value was “well tolerated”. The GI50 in data set [3] was 378 nM. Also, in data set [4], the activity at 0.1 µM came to 12%.
For `N#CCCO/N=C1\c2cc(O[C@H]3CC[C@H](N)CC3)ccc2-c2ncnc(N)c2C12CCCC2` [Example 102, 3-[(Z)-[4-amino-8-(trans-4-aminocyclohexoxy)spiro[benzo[h]quinazoline-5,1′-cyclopentane]-6-ylidene]amino]oxypropanenitrile], the IC50 in data set [1] was 2.9 nM. Also, the concentration for 50% growth inhibition (GI50) in data set [3] was found to be 10.1 nM. In data set [4], the activity at 0.1 µM stood at 7%.
For `CC(F)(F)CCO/N=C1\c2cc(O[C@H]3CC[C@@H](N)CC3)ccc2-c2ncnc(N)c2C1(C)C` [Example 115, (6Z)-8-(cis-4-aminocyclohexoxy)-6-(3,3-difluorobutoxyimino)-5,5-dimethyl-benzo[h]quinazolin-4-amine], in that order: 19.4 nM, 102 nM and 17%.
